Reference: patent US10150743B2, “Carboxylic acid compounds” (priority 2012, dated 2018)
pIC50: −log10 of the molar value.

What was measured:
[1] = molecular target: hERG ion channel (Homo sapiens (Human), UniProt Q12809); assay: hERG Analysis - Method 1 (IONWORKS HT, CHO-hERG cells); assay type: cell-based; conditions: ~21° C.
Description: The hERG-expressing Chinese hamster ovary K1 (CHO) cells described by (Persson, Carlsson, Duker, & Jacobson, 2005) were grown to semi-confluence at 37° C. in a humidified environment (5% CO2) in F-12 Ham medium containing L-glutamine, 10% foetal calf serum (FCS) and 0.6 mg/mL hygromycin (all available from Sigma-Aldrich). Prior to use, the monolayer was washed using a pre-warmed (37° C.) 3 mL aliquot of Versene 1:5,000 (Invitrogen) After aspiration of this solution the flask was incubated at 37° C. in an incubator with a further 2 mL of Versene 1:5,000 for a period of 6 minutes. Cells were then detached from the bottom of the flask by gentle tapping and 10 mL of Dulbecco's Phosphate-Buffered Saline containing calcium (0.9 mM) and magnesium (0.5 mM) (PBS; Invitrogen) was then added to the flask and aspirated into a 15 mL centrifuge tube prior to centrifugation (50 g, for 4 mins). The resulting supernatant was discarded and the pellet gently re-suspended in 3 mL of PBS. A 0.5 mL aliquot of cell suspension was removed and the number of viable cells (based on trypan blue exclusion) was determined in an automated reader (Cedex; Innovatis) so that the cell re-suspension volume can be adjusted with PBS to give the desired final cell concentration. It is the cell concentration at this point in the assay that is quoted when referring to this parameter. CHO-Kv1.5 cells, which were used to adjust the voltage offset on IONWORKS™ HT, were maintained and prepared for use in the same way.
The principles and operation of this device have been described by (Schroeder, Neagle, Trezise, & Worley, 2003). Briefly, the technology is based on a 384-well plate (PATCHPLATE™) in which a recording was attempted in each well by using suction to position and hold a cell on a small hole separating two isolated fluid chambers. Once sealing had taken place, the solution on the underside of the PATCHPLATE™ was changed to one containing amphotericin B. This permeablises the patch of cell membrane covering the hole in each well and, in effect, allowed a perforated, whole-cell patch clamp recording to be made.
A β-test IONWORKS™ HT from Essen Instrument was used. […] (˜21° C.), as follows. The reservoir in the “Buffer” position was loaded with 4 mL of PBS and that in the “Cells” position with the CHO-hERG cell suspension described above. A 96-well plate (V-bottom, Greiner Bio-one) containing the compounds to be tested (at 3-fold above their final test concentration) was placed in the “Plate 1” position and a PATCHPLATE™ was clamped into the PATCHPLATE™ station. […]

[2] = tested on: CT26 mouse tumour cells; assay: Survival studies in CT26, a murine syngeneic colon carcinoma tumour model; assay type: in vivo; conditions: Balb/C mice; RT 2Gy x5 plus 30 mg/kg once a week p.o.; vs control or RT; FIG. 12
Description: Experiments were conducted on female mice (Balb/C genotype, at least 5 weeks old). CT26 mouse tumour cells (CRL-2638) were purchased from ATCC. CT26 mouse tumour cells (1×10^6) were implanted subcutaneously in the flank of mice on day 0. Mice in radiotherapy alone (RT) group and combination group were anesthetized and received radiation therapy (2Gy) at days 7, 8, 9, 10, and 11. Mice in combination group were also treated with a compound of Example 3 (30 mg/kg once a week) administered orally (p.o.) or Example 4 (5 mg/kg once a week) administered intravenously (i. v.) on days 7, 14, 22, and 27. Tumour volumes were assessed at least twice weekly by bilateral vernier caliper measurements. Survival period was determined by the time taken for tumours to reach 4 times the volume at the time of treatment.

[3] = molecular target: hERG potassium channel (Homo sapiens (Human), UniProt Q12809); assay: hERG Analysis - Method 2 (QPATCH HT, CHO-hERG cells); assay type: cell-based; conditions: half-maximal inhibition concentration, 22±2° C.
Chain of hERG potassium channel (Q12809 whole entry): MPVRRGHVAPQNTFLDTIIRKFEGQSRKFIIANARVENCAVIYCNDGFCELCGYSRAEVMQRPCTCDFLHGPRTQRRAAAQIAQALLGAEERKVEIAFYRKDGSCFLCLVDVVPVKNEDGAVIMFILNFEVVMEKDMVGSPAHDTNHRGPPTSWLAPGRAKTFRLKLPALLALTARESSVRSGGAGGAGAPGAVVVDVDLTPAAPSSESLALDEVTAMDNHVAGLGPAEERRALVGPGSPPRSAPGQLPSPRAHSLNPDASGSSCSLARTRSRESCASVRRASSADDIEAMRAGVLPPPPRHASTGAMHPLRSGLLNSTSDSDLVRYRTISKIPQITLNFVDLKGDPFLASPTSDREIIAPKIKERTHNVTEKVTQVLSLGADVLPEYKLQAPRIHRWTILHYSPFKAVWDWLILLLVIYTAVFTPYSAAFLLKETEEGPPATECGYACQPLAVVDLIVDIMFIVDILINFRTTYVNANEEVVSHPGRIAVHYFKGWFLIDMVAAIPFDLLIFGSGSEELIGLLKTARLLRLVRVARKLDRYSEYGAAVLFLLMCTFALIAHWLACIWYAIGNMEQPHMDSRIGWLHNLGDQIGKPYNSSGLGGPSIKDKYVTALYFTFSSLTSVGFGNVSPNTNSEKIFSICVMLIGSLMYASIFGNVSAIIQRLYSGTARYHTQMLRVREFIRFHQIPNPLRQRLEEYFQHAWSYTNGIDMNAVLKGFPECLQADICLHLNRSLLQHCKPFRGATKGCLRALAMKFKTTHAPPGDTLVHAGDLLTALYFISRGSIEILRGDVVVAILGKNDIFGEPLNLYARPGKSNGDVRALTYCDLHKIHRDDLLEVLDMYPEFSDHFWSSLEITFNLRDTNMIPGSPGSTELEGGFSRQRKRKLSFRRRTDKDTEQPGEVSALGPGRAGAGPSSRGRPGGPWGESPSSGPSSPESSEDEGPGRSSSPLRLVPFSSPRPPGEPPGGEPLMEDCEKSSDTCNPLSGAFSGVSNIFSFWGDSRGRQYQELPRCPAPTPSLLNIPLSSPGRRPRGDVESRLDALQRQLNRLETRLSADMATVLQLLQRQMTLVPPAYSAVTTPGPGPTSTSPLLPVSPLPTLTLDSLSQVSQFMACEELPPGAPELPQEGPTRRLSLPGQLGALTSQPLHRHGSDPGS
Description: The hERG potassium current was measured in a hERG-stably-expressing Chinese hamster ovary K1 (CHO) cells. The experiments were performed using an automated planar patch-clamp system QPATCH HT (Sophion Bioscience A/S). The application of pressure for forming gigaseals and whole-cell patch clamp configuration were established using the QPATCH assay software. Patch-clamp experiments were performed in voltage-clamp mode and whole-cell currents were recorded from individual cells. The following stimulation protocol was applied to investigate the effects of compounds on hERG potassium channel: The membrane potential was held at −80 mV and repetitively (every 15 s) depolarized to +20 mV for 5 s after the pulse to −50 mV for 20 ms served to define the baseline, followed by repolarizing step to −50 mV for 5 s to evaluate of the tail current amplitude. Experiments were conducted at room temperature (22±2° C.).
Effects of compounds were determined from cumulative applications of increasing 4 concentrations and calculated as percent of blocked current. The data points were fitted with Hill equation to calculate half-maximal inhibition concentrations. The test solution includes: Extracellular solution (mM): 2 mM of CaCl2, 1 mM of MgCl2, 10 mM of HEPES, 4 mM of KCl, 145 mM of NaCl, and 10 mM of Glucose; and Intracellular solution (mM): 5.4 mM of CaCl2, 1.8 mM of MgCl2, 10 mM of HEPES, 31 mM of KOH, 10 mM of EGTA, 120 mM of KCl, and 4 mM of ATP.

Chain of hERG ion channel (Q12809 whole entry): as above

CCC[C@@H](CCO)Nc1nc(N)nc(C)c1Cc1ccc(CN(CC(=O)O)CC(F)F)cc1OC [Example 3, (S)-2-((4-((2-amino-4-(1-hydroxyhexan-3-ylamino)-6-methylpyrimidin-5-yl)methyl)-3-methoxybenzyl)(2,2-difluoroethyl)amino)acetic acid]
pIC50 [1]: < 4.48
Survival period (time for tumours to reach 4 times the volume at treatment) [2]: survived significantly longer
pIC50 [3]: < 5.00
